The values below come from patent publication US20210238173A1, “MITOGEN-ACTIVATED PROTEIN KINASE KINASE 7 INHIBITORS” (Yeda Research and Development Co. Ltd., priority 2018, published 2021).

For one assay, the target named is T1, MKK7 (Homo sapiens, UniProt O14733).
T1 construct: purchased Nanosyn (contract assay)
T1 sequence (O14733 1-419): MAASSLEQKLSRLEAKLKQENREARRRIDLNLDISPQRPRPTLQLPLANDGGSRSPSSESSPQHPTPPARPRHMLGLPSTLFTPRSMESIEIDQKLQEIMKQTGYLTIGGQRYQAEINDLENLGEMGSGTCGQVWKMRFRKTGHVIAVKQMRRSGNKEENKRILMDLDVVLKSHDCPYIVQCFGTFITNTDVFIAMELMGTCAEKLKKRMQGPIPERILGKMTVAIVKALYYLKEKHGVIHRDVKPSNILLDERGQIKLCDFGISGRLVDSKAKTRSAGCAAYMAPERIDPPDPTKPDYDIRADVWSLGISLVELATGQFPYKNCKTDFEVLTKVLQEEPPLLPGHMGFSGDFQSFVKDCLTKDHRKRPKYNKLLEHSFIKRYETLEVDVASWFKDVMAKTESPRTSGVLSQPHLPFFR
Description: In vitro kinase activity assay for MKK7 (Nanosyn). In kind it is biochemical. The settings on record: read-out: MKK7 IC50 in vitro. Here is the method:
Based on visual inspection of the top 500 predictions, 10 compounds were selected for synthesis and testing (see, Table 1). The “Docking rank” is given in its respective run, whereas four virtual libraries of acrylamides were docked separately, based on the amine precursor for the acrylamide (primary or secondary aliphatic amines, primary or secondary aromatic amines). In vitro kinase activity assay was carried out by Nanosyn, as described below.
(§1) In Vitro Activity Assays for MKK7 or MKK4 (Carried by Nanosyn):
(§2) Exemplary test compounds, according to some embodiments of the present invention, were diluted in DMSO to a final concentration that ranged from 10 μM to 0.0565 nM, while final concentration of DMSO in all assays was kept at 1%. Reference compound, Staurosporine, was tested in a similar manner. […] After incubation, activity of now activated JNK1 was tested in the presence of 30 μM ATP ATP for 17 h (MKK7) or 4 h (MKK4).

Another assay deals with pERK in HEK293 cells. Description: pERK response in HEK293 cells. Particulars: at 10 μM. In kind it is cell-based. Here is the method: (§3) To rapidly assess the cellular activity (EC50) with full dose response curves of the MKK7 covalent inhibitors, according to some embodiments of the present invention, an in-cell western assay was adapted to a 384 well plate format over traditional western blot, and monitored phospho-JNK (pJNK) levels in response to osmotic shock. We first characterized the dynamics of pJNK in response to sorbitol. Sufficient dynamic range for pJNK is achieved at 20 minutes in HEK293 cells and at 40 minutes in 3T3 and Beas2B cells. The compound's activity was assessed by pre-treating cells with either compound or DMSO for 2 hours, followed by Sorbitol stimulation. The response of pJNK, and its substrates, pc-Jun and pATF2, was measured, as well as pP38, which is a substrate of MKK4 but not MKK7, and pERK in HEK293 cells, and the results are presented in Table 5 below.
(§4) With similar values for pcJun (2.26 μM and 1.67 μM, respectively) and pATF2 (2.79 μM 5.19 μM, respectively).

Another assay relates to pJNK in 3T3 WT cells. Description: In-cell western (ICW) pJNK inhibition in 3T3 WT. In kind it is cell-based. The settings on record: 3T3 WT, sorbitol stimulation. On the procedure:
(§5) HEK293, Beas2B and 3T3 cells were plated 24 hours before procedure on 384 well clear bottom black flat plates (Corning) pre-coated with Fibronectin (Sigma) diluted in PBS to a concentration of 5 μg/ml 45 minutes prior to cells introduction. Cells were plated using Multidrop™ Combi reagent dispenser (Thermo Fisher Scientific). Compound, reagents and antibody dispensing as well as washes were performed with a CyBio liquid handler (Analytik). Cells were pre-incubated with a small molecule or up to 1% DMSO for 2 h before fixation. HEK293, 3T3 or Beas2B cells were treated with 0.6M/0.2M/0.2M D-Sorbitol/PBS (Sigma) for 20/40/40 min. respectively, before fixation. Media was removed and wells were immediately fixed with 150 μl per well of 3.7% formaldehyde/PBS fixing solution for 20 min. Formaldehyde was then aspired and cells were permeabilized with 150 μl of 0.5% Triton x-100/PBS solution for 10 min. After aspiration cells were washed with ice-cold methanol and stored at −20° C., for 10 min. Methanol was aspired and cells were blocked with 150 μl blocking buffer (LICOR) for 90 min. Primary antibody Phospho-SAPK/JNK T183/Y185 (CST; 9251S) was diluted 1:1000 in blocking buffer and was applied 50 μl per well, except control wells to which only blocking buffer was applied, O.N. (16 h) at 4° C. with mild shaking. Primary antibody was aspired, wells were washed with 150 μl 0.1% Tween20/PBS (Sigma) washing solution three times for 7 min. IRDye® 800CW Goat anti-Rabbit IgG Secondary antibody (LICOR) was then diluted 1:1200 in blocking buffer with 50 μl applied per well on control wells only (no CellTag control), then CellTag700 (1:2000) was added to the solution and 50 μl were added to all experiment wells, for 1 h at room temperature. Wells were aspired and washed again with 150 μl 0.1% Tween20/PBS (Sigma) washing solution three times for 7 min. plate was dried and scanned with Odyssey CLx imaging system at 700 nm and 800 nm (Licor). Wells signals were analyzed with Odyssey software. The signal was normalized by the CellTag700 signal.
as §3
Wildtype 3T3 cells, 3T3 MKK7 double knock-out (MKK7^−/−) cells and MKK4/7 double knockouts (MKK4/7^−/−) were used to validate on target activity of the MKK7 covalent inhibitors presented herein.

For another assay, the system named is pP38 in HEK293 cells. Description: pP38 response in HEK293 cells. Format: cell-based. The settings on record: at 10 μM. On the procedure: as §3, §4
The subject of another assay is p-cJun in HEK293 cells. Put plainly: p-cJun inhibition in HEK293 cells. The settings on record: Homo sapiens. In kind it is cell-based. Here is the method: as §5, with “Primary antibody was aspired, wells were washed with 150 μl 0.1% Tween20/PBS (Sigma) washing solution three times for 7 min. IRDye® 800CW Goat anti-Rabbit IgG Secondary antibody (LICOR) was then diluted 1:1200 in blocking buffer with 50 μl applied per well on control wells only (no CellTag control), then CellTag700 (1:2000) was added to the solution and 50 μl were added to all experiment wells, for 1 h at room temperature. Wells were aspired and washed again with 150 μl 0.1% Tween20/PBS (Sigma) washing solution three times for 7 min. plate was dried and scanned with Odyssey CLx imaging system at 700 nm and 800 nm (Licor).” left out, “The signal was normalized by the CellTag700 signal.” left out
as §3, with “We first characterized the dynamics of pJNK in response to sorbitol. Sufficient dynamic range for pJNK is achieved at 20 minutes in HEK293 cells and at 40 minutes in 3T3 and Beas2B cells.” left out

Another assay concerns pATF2 in HEK293 cells. Put plainly: pATF2 inhibition in HEK293 cells. Format: cell-based. The settings on record: Homo sapiens. Here is the method:
as §5, with “Primary antibody was aspired, wells were washed with 150 μl 0.1% Tween20/PBS (Sigma) washing solution three times for 7 min. IRDye® 800CW Goat anti-Rabbit IgG Secondary antibody (LICOR) was then diluted 1:1200 in blocking buffer with 50 μl applied per well on control wells only (no CellTag control), then CellTag700 (1:2000) was added to the solution and 50 μl were added to all experiment wells, for 1 h at room temperature. Wells were aspired and washed again with 150 μl 0.1% Tween20/PBS (Sigma) washing solution three times for 7 min. plate was dried and scanned with Odyssey CLx imaging system at 700 nm and 800 nm (Licor).” left out, “The signal was normalized by the CellTag700 signal.” left out
as §3, with “We first characterized the dynamics of pJNK in response to sorbitol. Sufficient dynamic range for pJNK is achieved at 20 minutes in HEK293 cells and at 40 minutes in 3T3 and Beas2B cells.” left out

A further assay deals with pJNK in HEK293 cells. Put plainly: In-cell western (ICW) pJNK inhibition in HEK293. Format: cell-based. The settings on record: Homo sapiens, HEK293, HEK293, ICW, 2 h pre-incubation, sorbitol stimulation. Here is the method:
as §5, §3

In another assay the target is T2, MKK4 (Homo sapiens, UniProt P45985).
T2 construct: purchased Nanosyn (contract assay)
T2 sequence (P45985 1-399): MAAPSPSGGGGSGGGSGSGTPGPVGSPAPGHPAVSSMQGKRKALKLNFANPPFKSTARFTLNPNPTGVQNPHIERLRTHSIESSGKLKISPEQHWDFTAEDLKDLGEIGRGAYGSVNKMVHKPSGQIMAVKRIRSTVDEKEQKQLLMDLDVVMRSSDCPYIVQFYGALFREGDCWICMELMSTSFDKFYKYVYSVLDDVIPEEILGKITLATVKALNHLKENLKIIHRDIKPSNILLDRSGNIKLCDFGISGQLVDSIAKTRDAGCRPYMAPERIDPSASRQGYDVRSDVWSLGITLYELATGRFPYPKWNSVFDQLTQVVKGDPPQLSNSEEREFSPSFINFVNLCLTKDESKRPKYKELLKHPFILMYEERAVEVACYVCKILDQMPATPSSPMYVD
Description: In vitro activity assay for MKK4 (Nanosyn). In kind it is biochemical. On the procedure: as §1, §2

The test system of the next assay is JNK activation. Put plainly: KTR reporter live cell imaging of JNK activation. Format: cell-based. The settings on record: Homo sapiens; HEK293 cells; read-out: EC50 of test and control compounds. An excerpt:
As an orthogonal assay for the ICW we used a KTR reporter cell line for JNK activation via live cell imaging.

Assay [1] deals with T3, MKK7 in MDA-MB-231 lysate (Homo sapiens, UniProt O14733).
T3 construct: endogenous in cells; host or cells: MDA-MB-231
T3 sequence (O14733 1-419): T1 sequence (O14733 1-419)
Put plainly: Proteomic selectivity labeling in human cell lysate (MDA-MB-231). Format: binding.

The subject of a further assay is primary mouse B-cells. Description: Primary B-cell activation (CD86+ FACS) in response to LPS. In kind it is cell-based. Particulars: Mus musculus, B-cell. An excerpt: Compounds Block Activation of Primary Mouse B-Cells:
JNK is known to mediate activation of B-cells in response to lypopolysacharide (LPS) through the TLR4 signaling pathway as well as in response to B-cell receptor activation (stimulated e.g. with an anti-IgM antibody). Primary B-cells were isolated from the spleen of mice and assessed for their B-cell activation, via FACS analysis of CD86+ expression, in response to LPS in the presence or absence of the covalent MKK7 enzyme inhibitors presented herein, as well as a positive control JNK inhibitor, JNK-IN-8.
At 10 μM and 2 hours pre-incubation before stimulation, GO80 was able to inhibit 60% of the CD86+ response.

A value given as a limit tells only on which side of the number the result lay.

On to `C=CC(=O)Nc1cccc(-c2n[nH]c3cc([N+](=O)[O-])ccc23)c1` [GO37], for which the IC50 on MKK7 was 0.014 µM; in the assay with pJNK in 3T3 WT cells, 5.33 µM; against MKK4, greater than 10 µM. Further, the “effect on pERK levels” value in the assay on pERK in HEK293 cells is listed as “did not affect”. Further, the EC50 in the assay with pJNK in 3T3 WT cells (ICW, 2 h pre-incubation) is 4.2 µM; with p-cJun in HEK293 cells it was 2.52 µM; with pATF2 in HEK293 cells it was 3.71 µM; in the assay with pJNK in HEK293 cells, 0.73 µM. Besides, the “effect on pP38 levels” value in the assay on pP38 in HEK293 cells is “did not affect”.

In the case of `CCC(=O)Nc1cccc(-c2[nH]nc3ccccc23)c1` [PCM520], in the assay with JNK activation, the concentration for a half-maximal effect (EC50) was greater than 10 µM.

`C=CC(=O)Nc1cccc(-c2nn(C)c3ccccc23)c1` [PCM521]: the EC50 with JNK activation was greater than 10 µM.

Turning to `C#CCNC(=O)c1cc(NC(=O)C=C)cc(-c2n[nH]c3ccccc23)c1` [PCM548], the proteins labeled result is “the only target” in assay [1] (at 2 μM), “MKK7 seems to be the dominant target” in assay [1] (at 5 μM) and “labels many proteins” in assay [1] (at 10 μM). Moreover, the inhibition at 10 µM in the assay with primary mouse B-cells (10 μM, 2 hours pre-incubation) was roughly 90%. In the assay with primary mouse B-cells (full dose response), this compound returned an IC50 of 5.3 µM.
